Where two headings read alike, the source gives them in different places.

The test system of experiment [1] is Aurantiochytrium sp. HS399. To be noted: for growth with nitrogen source under an acetic acid pH auxostat system: pH 5.5 or 6.0.
Experiment [2] concerns Aurantiochytrium sp. HS399. To be noted: FIG. 1; pH set point 5.5 and 7.
Method: An experiment was performed to determine the ability of Aurantiochytrium to grow on combination of acetate and another organic carbon source in axenic and contaminated culture conditions. […] The initial culture medium was supplemented with 30 g/L glycerol and 0.5 g/L acetate. […] Cell dry weights were measured daily.
The subject of experiment [3] is aerobic bacteria. Conditions: throughout the batch, Table 20. The method, then:
(§1) An experiment was performed to determine the effectiveness of growing Aurantiochytrium with combination of acetate and a non-acetate organic carbon sources, in this case glycerol. Aurantiochytrium sp. HS399 was grown in a 100 L open pond. The base medium contained: sodium acetate (1 g/L), glycerol (30 g/L) monosodium glutamate monohydrate (2.5 g/L) NaCl (12.5 g/L), MgSO4.7H2O (2.5 g/L), KCl (0.5 g/L), CaCl2 (0.1 g/L), KH2PO4 (0.5 g/L), vitamins (1 ml/L), and trace metal (5 ml/L). Trace and vitamins stocks were prepared according to Ashford, et al. 2000. Lipids 35, 1377-1386. The ponds were inoculated at 1 v/v using exponentially growing cultures. Aeration was maintained at 0.5 vvm using a porous hose. In one treatment the pH was controlled at a set point of pH 7 with hydrochloric acid, and no acetic acid was supplied (i.e., glycerol only). In another treatment acetic acid was supplied by a pH auxostat system at a set point of 5.5 in addition to the glycerol. The impact on microalgae growth and contamination was analyzed by measuring dry weights (filtration), residual acetate concentration in the culture medium (HPLC), and total aerobic bacteria counts (petrifilms) daily.

In experiment [4] the test system is Aurantiochytrium sp. HS399. Conditions: Table 19. The method, then: as §1
Experiment [5] relates to Aurantiochytrium sp. HS399. To be noted: cultures with a pH of 5 and above. The protocol: Aurantiochytrium was grown in an acetic acid/pH-auxostat mode in 700 ml bubble column at 27° C. in sterile conditions. […] Trace and vitamins stocks were prepared according to Ashford, et al. 2000.
The subject of experiment [6] is Aurantiochytrium sp. HS399. The method, then: An experiment was performed to determine if Aurantiochytrium sp. HS399 can grow using acetate as an organic carbon source and ammonia as a nitrogen source. Aurantiochytrium was grown in an acetic acid/pH-auxostat mode in 700 ml bubble column at 27° C. in sterile conditions. The base medium contained: NaCl (12.5 g/L), MgSO4.7H2O (2.5 g/L), KCl (0.5 g/L). CaCl2) (0.1 g/L), KH2PO4 (0.125 g/L) vitamins (0.25 ml/L) and trace metal (1.25 ml/L). Trace and vitamins stocks were prepared according to Ashford, et al. 2000. Lipids 35, 1377-1386. A blend of ammonium (hydroxide and acetic acid 1:5 w/w) with slightly higher molar ratio of acetic acid (1:1.1) was prepared with the aim maintain residual acetate present until the end of the pH auxostat. The pH auxostat was set to pH 6.6. The ammonium acetate blend was added to the treatments in order to match the following concentrations: 1×: 1.07 g/L NH4, 5.68 g/L acetic acid, 3×: 3.21 g/L NH4, 17.04 g/L acetic acid, 5×: 5.35 g/L NH4, 28.40 g/L acetic acid, 7×: 7.49 g/L NH4, 39.76 g/L acetic acid.

As for `N[C@@H](CCC(=O)O)C(=O)[O-].[Na+]` [MSG, monosodium glutamate], the “Cell Dry Weight” value in experiment [1] (pH 5.5, 2.5 g/L, time 1 d) came to 2.6 ± 0.0 g/L; in experiment [1] (pH 5.5, 2.5 g/L, time 2 d) it was 5.2 ± 0.0 g/L; in experiment [1] (pH 5.5, 2.5 g/L, time 3 d), 7.5 ± 0.2 g/L; in experiment [1] (pH 5.5, 2.5 g/L, time 4 d), 8.8 ± 0.4 g/L; in experiment [1] (pH 5.5, 2.5 g/L, time 5 d) it was 10.4 ± 0.4 g/L; in experiment [1] (pH 5.5, 2.5 g/L, time 6 d), 11.4 ± 0.3 g/L. For the same compound, the “Cell Dry Weight” value is 3.6 ± 0.3 g/L in experiment [1] (pH 6.0, 10 g/L, time 1 d); 6.1 ± 0.1 g/L in experiment [1] (pH 6.0, 10 g/L, time 2 d); 7.9 ± 2.0 g/L in experiment [1] (pH 6.0, 10 g/L, time 4 d); 11.9 ± 2.6 g/L in experiment [1] (pH 6.0, 10 g/L, time 6 d). In addition, in experiment [1], the “growth with nitrogen source under an acetic acid pH auxostat system” value was “could grow”.

With `CC(=O)O` [Acetic Acid, acetic acid], the “growth in axenic and contaminated cultures versus cultures not receiving acetic acid” value in experiment [2] was “comparable growth”. Moreover, the “decrease of aerobic bacteria counts as compared to the other treatment” value in experiment [3] is at least 3 log. The “growth compared to the other culture (glycerol only, HCl)” value in experiment [4] is recorded as “comparable growth”. In addition, in experiment [5], the “growth using acetate as an organic carbon source” value is recorded as “able to grow”.

Take `CC(=O)O.N` [NH4AoC, ammonium acetate]: the “Cell Dry Weight” value was 0.2 ± 0.0 g/L in experiment [1] (pH 5.5, 1.1 g/L, time 0 d); 2.5 ± 0.1 g/L in experiment [1] (pH 5.5, 1.1 g/L, time 1 d); 4.9 ± 0.1 g/L in experiment [1] (pH 5.5, 1.1 g/L, time 2 d); 7.5 ± 0.3 g/L in experiment [1] (pH 5.5, 1.1 g/L, time 3 d); 8.9 ± 0.2 g/L in experiment [1] (pH 5.5, 1.1 g/L, time 4 d); 10.7 ± 0.3 g/L in experiment [1] (pH 5.5, 1.1 g/L, time 5 d). In addition, the “Cell Dry Weight” value in experiment [1] (pH 5.5, 1.1 g/L, time 6 d) was 11.8 ± 0.1 g/L; in experiment [1] (pH 6.0, 4.5 g/L, time 0 d), 0.2 ± 0.0 g/L; in experiment [1] (pH 6.0, 4.5 g/L, time 1 d), 2.6 ± 0.1 g/L; in experiment [1] (pH 6.0, 4.5 g/L, time 2 d), 5.4 ± 0.4 g/L; in experiment [1] (pH 6.0, 4.5 g/L, time 3 d), 7.8 ± 0.1 g/L; in experiment [1] (pH 6.0, 4.5 g/L, time 4 d) it was 9.8 ± 0.5 g/L. Further, the “Cell Dry Weight” value in experiment [1] (pH 6.0, 4.5 g/L, time 5 d) amounted to 11.9 ± 0.2 g/L; in experiment [1] (pH 6.0, 4.5 g/L, time 6 d), 13.8 ± 0.2 g/L; in experiment [6] (1X (1.07 g/L NH4, 5.68 g/L acetic acid), time 0 d), 0.6 ± 0.0 g/L; in experiment [6] (1X, time 1 d), 2.2 ± 0.0 g/L; in experiment [6] (1X, time 2 d) it was 4.8 ± 0.0 g/L; in experiment [6] (1X, time 3 d), 7.0 ± 0.1 g/L. Further, the “Cell Dry Weight” value in experiment [6] (1X, time 4 d) is 7.9 ± 0.1 g/L; in experiment [6] (1X, time 5 d), 8.7 ± 0.2 g/L; in experiment [6] (1X, time 6 d), 9.4 ± 0.1 g/L; in experiment [6] (3X (3.21 g/L NH4, 17.04 g/L acetic acid), time 0 d), 0.6 ± 0.0 g/L; in experiment [6] (3X, time 1 d), 1.7 ± 0.1 g/L; in experiment [6] (3X, time 2 d), 3.6 ± 0.3 g/L. In addition, the “Cell Dry Weight” value in experiment [6] (3X, time 3 d) turned out to be 5.2 ± 0.1 g/L; in experiment [6] (3X, time 4 d), 6.5 ± 0.3 g/L; in experiment [6] (3X, time 5 d), 6.8 ± 0.3 g/L; in experiment [6] (3X, time 6 d), 7.5 ± 0.1 g/L; in experiment [6] (5X (5.35 g/L NH4, 28.40 g/L acetic acid), time 0 d) it was 0.6 ± 0.0 g/L; in experiment [6] (5X, time 1 d) it was 0.8 ± 0.2 g/L. Further, the “Cell Dry Weight” value is given as 0.7 ± 0.1 g/L in experiment [6] (5X, time 2 d); 0.7 ± 0.0 g/L in experiment [6] (5X, time 3 d); 0.8 ± 0.1 g/L in experiment [6] (5X, time 4 d); 0.3 ± 0.0 g/L in experiment [6] (5X, time 5 d); 0.4 ± 0.0 g/L in experiment [6] (5X, time 6 d); 0.6 ± 0.0 g/L in experiment [6] (7X (7.49 g/L NH4, 39.76 g/L acetic acid), time 0 d). Further, the “Cell Dry Weight” value in experiment [6] (7X, time 1 d) is 1.0 ± 0.2 g/L; in experiment [6] (7X, time 2 d), 0.6 ± 0.1 g/L; in experiment [6] (7X, time 3 d), 0.7 ± 0.0 g/L; in experiment [6] (7X, time 4 d), 0.8 ± 0.1 g/L; in experiment [6] (7X, time 5 d) it was 0.3 ± 0.0 g/L; in experiment [6] (7X, time 6 d), 0.6 ± 0.1 g/L. Also, in experiment [1], the “growth with nitrogen source under an acetic acid pH auxostat system” value is “could grow”. For the same compound, the “growth on ammonium acetate blends” value in experiment [6] (1× and 3× blends, pH 6.6) was “able to grow”.

(Values after patent publication US20190218504A1, “METHODS OF CULTURING AURANTIOCHYTRIUM USING ACETATE AS AN ORGANIC CARBON SOURCE” (HELIAE DEVELOPMENT LLC, priority 2016, published 2019).)
